Laboratory results published in the supplement of paper PMC7840683.
± gives the standard deviation of the averaged measurements.

Test system: HepaRG
Test: LDH release cytotoxicity, % of total lysis control; higher = more cytotoxic
Settings: 48 h
Procedure, shortened: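 The CytoTox-ONE kit was used to read LDH in 50 µL spent medium as resorufin fluorescence on a Tecan Safire, with 0.1% Triton X added to total lysis wells. Beforehand, single-lot HepaRG cells on collagen I-coated 96-well plates had been exposed in duplicate for 48 h to eight-point half-log series (top 100 µM) in serum-free induction medium containing 0.5% DMSO. Percent cytotoxicity was normalized against on-plate vehicle and total lysis controls and averaged over duplicates.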

Structure (SMILES)	LDH release cytotoxicity (0.03162 µM) [%]	LDH release cytotoxicity (0.1 µM) [%]	LDH release cytotoxicity (0.3162278 µM) [%]	LDH release cytotoxicity (1 µM) [%]	LDH release cytotoxicity (3.16228 µM) [%]	LDH release cytotoxicity (10 µM) [%]	LDH release cytotoxicity (31.6228 µM) [%]	LDH release cytotoxicity (100 µM) [%]	further results
CCCCC(CC)COC(=O)c1ccc(C(=O)OCC(CC)CCCC)cc1 (stereo not given) [Bis(2-ethylhexyl) terephthalate]	-2 ± 1.1	-1.13 ± 0.62	-1.76 ± 0.63	-2.5 ± 0.76	-2.35 ± 0.77	-2.12 ± 0.71	-2.26 ± 0.82	-1.14 ± 0.6	–
CCCCC(CC)COC(=O)CCCCC(=O)OCC(CC)CCCC (stereo not given) [Bis(2-ethylhexyl)hexanedioate]	-2.21 ± 0.34	-2.881 ± 0.019	-3.04 ± 0.8	-2.88 ± 0.9	-2.66 ± 0.66	-2.86 ± 0.26	-2.54 ± 0.088	-1.41 ± 0.75	–
Oc1ccc(C(c2ccc(O)cc2)(C(F)(F)F)C(F)(F)F)cc1 [Bisphenol AF]	-1.31 ± 0.014	-1.4 ± 0.37	-1.16 ± 0.18	-1.45 ± 0.031	-0.575 ± 0.055	-1.57 ± 0.15	-1.62 ± 0.47	83.2 ± 2.1	–
CC(C)(c1ccc(O)cc1)c1ccc(O)cc1 [Bisphenol A]	-1.32 ± 0.3	-0.356 ± 1.2	-1.1 ± 0.41	-1.37 ± 0.015	-0.158 ± 0.45	0.439 ± 0.41	0.463 ± 0.27	1.47 ± 1.2	–
CCC(C)(c1ccc(O)cc1)c1ccc(O)cc1 [Bisphenol B]	-0.0728 ± 0.78	0.29 ± 0.38	0.714 ± 0.49	2.34 ± 1.5	1.11 ± 0.43	1.29 ± 0.37	1.29 ± 0.25	4.62 ± 1.9	–
OB(O)O [Boric acid (H3BO3)]	-0.989 ± 0.041	-0.753 ± 1.6	0.0737 ± 1.3	-0.582 ± 0.41	-0.954 ± 0.45	-0.232 ± 0.15	0.368 ± 0.65	0.851 ± 0.63	–
O=C(Nc1ccccc1-c1ccc(Cl)cc1)c1cccnc1Cl [Boscalid]	–	–	–	–	–	–	–	–	LDH release cytotoxicity (0.0332039 µM): -0.385 ± 0.58%; LDH release cytotoxicity (0.105 µM): -0.471 ± 1.4%; LDH release cytotoxicity (0.332039 µM): -0.417 ± 1.1%; LDH release cytotoxicity (1.05 µM): -1.35 ± 1.3%; LDH release cytotoxicity (3.32039 µM): -1.2 ± 0.15%; LDH release cytotoxicity (10.5 µM): -0.348 ± 0.85%; LDH release cytotoxicity (33.2039 µM): -0.586 ± 0.92%; LDH release cytotoxicity (105 µM): 0.89 ± 1.2%
CCC(C)N1C(=O)N=C(C)C(Br)C1=O (stereo not given) [Bromacil]	–	-3.85 ± 1.5	–	-3.54 ± 0.72	-3.65 ± 0.22	-2.46 ± 0.054	0.888 ± 0.45	5.41 ± 1.2	LDH release cytotoxicity (0.031623 µM): -0.635 ± 0.33%; LDH release cytotoxicity (0.316228 µM): -3.85 ± 0.21%
N#Cc1cc(Br)c(O)c(Br)c1 [Bromoxynil]	–	–	–	–	–	–	–	–	LDH release cytotoxicity (0.0253 µM): -2.04 ± 0.26%; LDH release cytotoxicity (0.08 µM): -2.14 ± 0.42%; LDH release cytotoxicity (0.252982 µM): -2.16 ± 0.52%; LDH release cytotoxicity (0.8 µM): -1.57 ± 0.33%; LDH release cytotoxicity (2.52982 µM): -1.26 ± 0.39%; LDH release cytotoxicity (8 µM): 0.434 ± 0.55%; LDH release cytotoxicity (25.2982 µM): 0.49 ± 1.5%; LDH release cytotoxicity (80 µM): 55.4 ± 0.62%
O=[N+]([O-])C(Br)(CO)CO [Bronopol]	–	-3.38 ± 2.4	–	-3.3 ± 0.87	-3.31 ± 0.59	-2.52 ± 1.9	-0.61 ± 0.22	0.628 ± 0.21	LDH release cytotoxicity (0.031623 µM): -1.83 ± 0.79%; LDH release cytotoxicity (0.316228 µM): -2.69 ± 1.3%
CC(C)N1C(=O)N(c2ccccc2)CSC1=NC(C)(C)C [Buprofezin]	-1.37 ± 0.98	-1.93 ± 0.62	-1.95 ± 0.58	-2.46 ± 1.3	-2.17 ± 0.66	-1.91 ± 0.48	-2.33 ± 0.99	11.8 ± 0.29	–
CS(=O)(=O)OCCCCOS(C)(=O)=O [Busulfan]	-1.48 ± 0.87	-0.871 ± 0.9	-1.32 ± 0.64	-2.08 ± 0.32	-1.19 ± 0.19	-0.461 ± 0.33	0.385 ± 0.76	0.593 ± 0.42	–
CCCCOCN(C(=O)CCl)c1c(CC)cccc1CC [Butachlor]	0.674 ± 1.6	-0.43 ± 0.44	-0.96 ± 0.72	-0.4246 ± 0.0032	-0.143 ± 1.2	0.287 ± 2.1	0.713 ± 0.79	2.96 ± 1.9	–
C=CCOC(=O)C(C)(C)OC(=O)c1cc(-n2c(=O)cc(C(F)(F)F)n(C)c2=O)ccc1Cl [Butafenacil]	–	–	–	–	–	–	–	–	LDH release cytotoxicity (0.0317809 µM): -1.79 ± 0.12%; LDH release cytotoxicity (0.1005 µM): -0.9 ± 0.18%; LDH release cytotoxicity (0.317809 µM): -0.684 ± 1.3%; LDH release cytotoxicity (1.005 µM): -2.04 ± 0.66%; LDH release cytotoxicity (3.17809 µM): -1.27 ± 0.17%; LDH release cytotoxicity (10.05 µM): -0.764 ± 0.69%; LDH release cytotoxicity (31.7809 µM): -0.16 ± 0.57%; LDH release cytotoxicity (100.5 µM): 1.19 ± 0.75%
CC(C)N(Cc1ccccc1)C(=O)C(C)(C)C [Butam]	-0.681 ± 0.21	-1.54 ± 0.98	-1.1 ± 0.59	-0.413 ± 0.43	-0.189 ± 0.29	0.285 ± 0.9	0.032 ± 0.83	0.934 ± 0.57	–
